Results: patent US4652547A (Eli Lilly and Company, priority 1984, dated 1987)
Read-outs that look alike come from different tables or passages of the source.

Experiments:
[1] = Hormone activity used for dosing; conditions: basis for administered amounts
HGO = test system: HGO
From the text: For example, in non-insulin dependent diabetes mellitus (NIDDM), one of the major metabolic abnormalities that maintains the resultant hyperglycemic state is accelerated hepatic glucose production.

hepatic glucose output = assay: Euglycemic glucose-clamp studies: suppression of hepatic glucose output; assay type: in vivo, human
Experimental: J. Physiol. 237:E214-E223 (1979). With this technique, an antecubital vein is cannulated in an antegrade manner to administer the infusates. A dorsal hand vein is cannulated in a retrograde fashion and kept in a warming device (70° C.) to facilitate venous sampling and provide arterialized venous blood. After insertion of the catheters, [3--3H]-glucose is infused for at least 30 minutes before initiating the hormone infusion. At the onset of hormone infusion, a priming dose of either insulin or proinsulin is administered during the initial 10 minutes in a logarithmically decreasing manner to acutely raise the serum hormone level. […] The overall glucose disposal rate is assessed isotopically for each 20 minute interval of the study.
(§1) Each subject underwent a total of 8 euglycemic glucose clamp studies, each performed on a separate day. […] Hepatic glucose output was quantitated in the basal state and during each clamp study using a primed continuous infusion of [3--3H]glucose. […] The dose response relationship for insulin and proinsulinmediated suppression of hepatic glucose output was determined by calculating the percent suppression of basal hepatic glucose output at each steady state hormone concentration obtained during the euglycemic clamp studies.

plasma glucose = assay: Response of fasting Type II diabetic patients: plasma glucose and hypoglycemia; conditions: 0.2 U/kg s.c.
[2] = test system: peripheral glucose uptake; assay: Kinetics of activation and deactivation: peripheral glucose uptake; assay type: in vivo, human
From the text: Marked differences between the two hormones were noted when biologic activity was studied.
(§2) At this point, the hormone infusion was abruptly stopped, and the glucose concentration was maintained constant until the biologic effects of the infused hormone were no longer detectable.

[3] = From the text: as §2
[4] = test system: hepatic glucose production; assay: Subcutaneous administration to Type II subjects: hepatic glucose production; assay type: in vivo, human; conditions: 0.2 U/kg s.c.
[5] = 0.2 U/kg s.c., five Type II subjects
glucose disposal = assay: Euglycemic glucose-clamp studies: glucose disposal; assay type: in vivo, human
Experimental: Ten healthy control subjects (five female and five male) ranging in age from 25-40 years (mean age=29±3 years) with mean relative body weights of 0.96+0.02 were used.
With this technique, an antecubital vein is cannulated in an antegrade manner to administer the infusates. A dorsal hand vein is cannulated in a retrograde fashion and kept in a warming device (70° C.) to facilitate venous sampling and provide arterialized venous blood. After insertion of the catheters, [3--3H]-glucose is infused for at least 30 minutes before initiating the hormone infusion. At the onset of hormone infusion, a priming dose of either insulin or proinsulin is administered during the initial 10 minutes in a logarithmically decreasing manner to acutely raise the serum hormone level. The amount of insulin or proinsulin given during this initial 10 minute period is roughly twice that given during each subsequent 10 minute interval by a continuous hormone infusion. […] The overall glucose disposal rate is assessed isotopically for each 20 minute interval of the study.
On one day, each subject received a 5.0 μg/M2/min (120 mU/M2/min) insulin infusion over a 6 hour period. […] Each proinsulin infusion was carried out for 300 minutes, with the quantitation of its biological effects based on measurements made during the 5th hour of each study. […]

[6] = test system: hepatic glucose output (HGO); assay: Kinetics of activation and deactivation: hepatic glucose output (HGO); assay type: in vivo, human
From the text: as §2

fat cells = conditions: e.g. fat cells; cited from earlier work
[7] = test system: insulin-degrading proteases; conditions: proteases at subcutaneous injection site of certain diabetics
[8] = remark: listed apart in the source
Experimental: J. Physiol. 237:E214-E223 (1979). With this technique, an antecubital vein is cannulated in an antegrade manner to administer the infusates. A dorsal hand vein is cannulated in a retrograde fashion and kept in a warming device (70° C.) to facilitate venous sampling and provide arterialized venous blood. After insertion of the catheters, [3--3H]-glucose is infused for at least 30 minutes before initiating the hormone infusion. At the onset of hormone infusion, a priming dose of either insulin or proinsulin is administered during the initial 10 minutes in a logarithmically decreasing manner to acutely raise the serum hormone level. The amount of insulin or proinsulin given during this initial 10 minute period is roughly twice that given during each subsequent 10 minute interval by a continuous hormone infusion. The serum glucose is maintained between 80 and 90 mg/dl throughout the study period with a coefficient of variation of less than 5% by means of a variable rate of infusion of 20% dextrose. The overall glucose disposal rate is assessed isotopically for each 20 minute interval of the study.
as §1, with “day. Insulin infusion rates of 15, 40, 120, and 240 mU/M2/min were utilized to construct a dose response curve for insulin action. With this approach an attempt was made to achieve steady state insulin concentrations of 40 to 800 μU/ml (Table 1). Each subject was also studied with four different proinsulin infusions.” for “day.”

[9] = Study A: insulin 15 mU/M^2/min, proinsulin 2.75 μg/M^2/min

human proinsulin
Hormone activity [1]: 4 IU/mg
Expected suppression of HGO (HGO; NIDDM subjects, circulating concentration approximately 1.5 2 pmol/ml): approximately 50%
Expected duration of adequate glycemic control (HGO; sustained level of 1.5-2 pmol/ml for about 3 hours, CSII or single s.c. injection): 8 to 10 h
Suppression of Hepatic Glucose Output (Mean ± SE) (hepatic glucose output; [9]): 80 ± 6%
Hormone concentration required to achieve 90% suppression of hepatic glucose output (hepatic glucose output; steady state serum concentration, euglycemic clamp): 3.35 pmol/mL
Blood glucose level to which each subject was lowered (plasma glucose; five fasting Type II subjects): 80 to 110 mg/dL
Plasma Glucose (plasma glucose; Mean of subjects (mean total dose 18.7 I.U.), 0 min after injection): 245 mg/dL
Plasma Glucose (plasma glucose; Mean of subjects (mean total dose 18.7 I.U.), 40 min after injection): 235 mg/dL
Plasma Glucose (plasma glucose; Mean of subjects (mean total dose 18.7 I.U.), 80 min after injection): 221 mg/dL
Plasma Glucose (plasma glucose; Mean of subjects (mean total dose 18.7 I.U.), 120 min after injection): 205 mg/dL
Plasma Glucose (plasma glucose; Mean of subjects (mean total dose 18.7 I.U.), 160 min after injection): 188 mg/dL
Plasma Glucose (plasma glucose; Mean of subjects (mean total dose 18.7 I.U.), 200 min after injection): 167 mg/dL
Plasma Glucose (plasma glucose; Mean of subjects (mean total dose 18.7 I.U.), 280 min after injection): 129 mg/dL
Plasma Glucose (plasma glucose; Mean of subjects (mean total dose 18.7 I.U.), 300 min after injection): 113 mg/dL
Plasma Glucose (plasma glucose; Mean of subjects (mean total dose 18.7 I.U.), 360 min after injection): 102 mg/dL
Plasma Glucose (plasma glucose; Mean of subjects (mean total dose 18.7 I.U.), 400 min after injection): 95 mg/dL
Plasma Glucose (plasma glucose; Mean of subjects (mean total dose 18.7 I.U.), 440 min after injection): 92 mg/dL
Plasma Glucose (plasma glucose; Mean of subjects (mean total dose 18.7 I.U.), 480 min after injection): 96 mg/dL
Plasma Glucose (plasma glucose; subject (total dose 15.0 I.U.), 0 min after injection): 332 mg/dL
Plasma Glucose (plasma glucose; subject (total dose 15.0 I.U.), 40 min after injection): 328 mg/dL
Plasma Glucose (plasma glucose; subject (total dose 15.0 I.U.), 80 min after injection): 308 mg/dL
Plasma Glucose (plasma glucose; subject (total dose 15.0 I.U.), 120 min after injection): 288 mg/dL
Plasma Glucose (plasma glucose; subject (total dose 15.0 I.U.), 160 min after injection): 272 mg/dL
Plasma Glucose (plasma glucose; subject (total dose 15.0 I.U.), 200 min after injection): 247 mg/dL
Plasma Glucose (plasma glucose; subject (total dose 15.0 I.U.), 240 min after injection): 210 mg/dL
Plasma Glucose (plasma glucose; subject (total dose 15.0 I.U.), 280 min after injection): 174 mg/dL
Plasma Glucose (plasma glucose; subject (total dose 15.0 I.U.), 360 min after injection): 94 mg/dL
Plasma Glucose (plasma glucose; subject four (total dose 27.2 I.U.), 0 min after injection): 159 mg/dL
Plasma Glucose (plasma glucose; subject four (total dose 27.2 I.U.), 40 min after injection): 144 mg/dL
Plasma Glucose (plasma glucose; subject four (total dose 27.2 I.U.), 120 min after injection): 128 mg/dL
Plasma Glucose (plasma glucose; subject four (total dose 27.2 I.U.), 200 min after injection): 110 mg/dL
Plasma Glucose (plasma glucose; subject four (total dose 27.2 I.U.), 240 min after injection): 101 mg/dL
Plasma Glucose (plasma glucose; subject four (total dose 27.2 I.U.), 280 min after injection): 98 mg/dL
Plasma Glucose (plasma glucose; subject four (total dose 27.2 I.U.), 300 min after injection): 88 mg/dL
Plasma Glucose (plasma glucose; subject four (total dose 27.2 I.U.), 360 min after injection): 84 mg/dL
Plasma Glucose (plasma glucose; subject four (total dose 27.2 I.U.), 400 min after injection): 85 mg/dL
Plasma Glucose (plasma glucose; subject four (total dose 27.2 I.U.), 440 min after injection): 86 mg/dL
Plasma Glucose (plasma glucose; subject four (total dose 27.2 I.U.), 480 min after injection): 88 mg/dL
Plasma Glucose (plasma glucose; subject one (total dose 14.8 I.U.), 0 min after injection): 213 mg/dL
Plasma Glucose (plasma glucose; subject one (total dose 14.8 I.U.), 40 min after injection): 203 mg/dL
Plasma Glucose (plasma glucose; subject one (total dose 14.8 I.U.), 80 min after injection): 187 mg/dL
Plasma Glucose (plasma glucose; subject one (total dose 14.8 I.U.), 160 min after injection): 140 mg/dL
Plasma Glucose (plasma glucose; subject one (total dose 14.8 I.U.), 240 min after injection): 81 mg/dL
Plasma Glucose (plasma glucose; subject one (total dose 14.8 I.U.), 280 min after injection): 77 mg/dL
Plasma Glucose (plasma glucose; subject one (total dose 14.8 I.U.), 300 min after injection): 80 mg/dL
Plasma Glucose (plasma glucose; subject one (total dose 14.8 I.U.), 320 min after injection): 80 mg/dL
Plasma Glucose (plasma glucose; subject three (total dose 16.3 I.U.), 0 min after injection): 290 mg/dL
Plasma Glucose (plasma glucose; subject three (total dose 16.3 I.U.), 40 min after injection): 282 mg/dL
Plasma Glucose (plasma glucose; subject three (total dose 16.3 I.U.), 80 min after injection): 272 mg/dL
Plasma Glucose (plasma glucose; subject three (total dose 16.3 I.U.), 120 min after injection): 250 mg/dL
Plasma Glucose (plasma glucose; subject three (total dose 16.3 I.U.), 160 min after injection): 230 mg/dL
Plasma Glucose (plasma glucose; subject three (total dose 16.3 I.U.), 200 min after injection): 200 mg/dL
Plasma Glucose (plasma glucose; subject three (total dose 16.3 I.U.), 240 min after injection): 183 mg/dL
Plasma Glucose (plasma glucose; subject three (total dose 16.3 I.U.), 280 min after injection): 152 mg/dL
Plasma Glucose (plasma glucose; subject three (total dose 16.3 I.U.), 300 min after injection): 127 mg/dL
Plasma Glucose (plasma glucose; subject three (total dose 16.3 I.U.), 360 min after injection): 101 mg/dL
Plasma Glucose (plasma glucose; subject three (total dose 16.3 I.U.), 400 min after injection): 82 mg/dL
Plasma Glucose (plasma glucose; subject three (total dose 16.3 I.U.), 440 min after injection): 77 mg/dL
Plasma Glucose (plasma glucose; subject two (total dose 20.0 I.U.), 0 min after injection): 231 mg/dL
Plasma Glucose (plasma glucose; subject two (total dose 20.0 I.U.), 40 min after injection): 217 mg/dL
Plasma Glucose (plasma glucose; subject two (total dose 20.0 I.U.), 80 min after injection): 201 mg/dL
Plasma Glucose (plasma glucose; subject two (total dose 20.0 I.U.), 120 min after injection): 191 mg/dL
Plasma Glucose (plasma glucose; subject two (total dose 20.0 I.U.), 160 min after injection): 182 mg/dL
Plasma Glucose (plasma glucose; subject two (total dose 20.0 I.U.), 240 min after injection): 164 mg/dL
Plasma Glucose (plasma glucose; subject two (total dose 20.0 I.U.), 280 min after injection): 143 mg/dL
Plasma Glucose (plasma glucose; subject two (total dose 20.0 I.U.), 300 min after injection): 134 mg/dL
Plasma Glucose (plasma glucose; subject two (total dose 20.0 I.U.), 360 min after injection): 128 mg/dL
Plasma Glucose (plasma glucose; subject two (total dose 20.0 I.U.), 400 min after injection): 117 mg/dL
Plasma Glucose (plasma glucose; subject two (total dose 20.0 I.U.), 440 min after injection): 112 mg/dL
Plasma Glucose (plasma glucose; subject two (total dose 20.0 I.U.), 480 min after injection): 104 mg/dL
Plasma Glucose (plasma glucose; subject two (total dose 20.0 I.U.), 500 min after injection): 100 mg/dL
t 1/2 of deactivation of effects on glucose disposal ([2]; after stopping 5 hour infusion): 1.45 ± 0.233 h
Decay of effect to stimulate glucose disposal, times more slowly than human insulin ([2]; after stopping infusion): 2.2 times
Time for glucose disposal rates to return to basal ([2]; following cessation of infusion): 160 min
Time for effect to stimulate glucose disposal to reach steady state ([2]; hormone infusion): > 5 h
t 1/2 of clearance from the circulation ([3]; after stopping 5 hour infusion (human insulin 0.55, human proinsulin 2.75 μg/M^2/min)): 0.333 h
Time by which hormone concentrations are below biologically effective values ([3]; after stopping infusion): ≤ 90 minutes
Initial volume of distribution compared to human insulin ([3]; primed continuous infusion): much greater
Time to steady state hormone concentration ([3]; primed continuous infusion): 90 to 120 min
Time of initial peak of hormone concentration ([3]; primed continuous infusion, all infusion rates): no initial peak of hormone concentration was observed
Effect on hepatic glucose production [4]: suppressed into the normal range
Time of maximum suppression of hepatic glucose production [4]: 264 ± 31 min
Minimum hepatic glucose production ([4]; basal 3.83±0.6): 1.21 ± 0.2 mg/kg/min
Mean peak hormone blood level [5]: 6.8 pmol/mL
Time of mean peak hormone blood level [5]: 230 ± 33 min
Time to reach steady state rates of glucose disposal (glucose disposal; 5 subjects, insulin 5.0 μg/M2/min over 6 hours, proinsulin 22.5 μg/M2/min over 8 hours): ≤ 5 h
Glucose Disposal Rate (Mean ± SE) (glucose disposal; [9]): 122 ± 11 mg/M^2/min
t 1/2 of deactivation of effect to inhibit HGO ([6]; after stopping 5 hour infusion): 3.83 ± 0.317 h
Time for HGO to return to baseline values, by extrapolation of the curve ([6]; after stopping infusion): > 6 h
Time until decline in effect to suppress HGO could be detected ([6]; after stopping infusion): 120 min
Internalization into target tissues (fat cells): internalized into target tissues
Degradation by insulin-degrading proteases [7]: not degraded
Steady State Hormone Levels (Mean ± SEM) ([8]; infusion A: insulin 0.63 μg/M^2/min, proinsulin 2.75 μg/M^2/min): 2.55 ± 0.16 pmol/mL
Steady State Hormone Levels (Mean ± SEM) ([8]; infusion B: insulin […]^2/min, proinsulin 7.5 μg/M^2/min): 6.24 ± 0.49 pmol/mL
Steady State Hormone Levels (Mean ± SEM) ([8]; infusion C: insulin 5.0 μg/M^2/min, proinsulin 22.5 μg/M^2/min): 21.2 ± 1.4 pmol/mL
Steady State Hormone Levels (Mean ± SEM) ([8]; infusion D: insulin 10.0 μg/M^2/min, proinsulin 45.0 μg/M^2/min): 40.0 ± 1.9 pmol/mL
